The record followed here is US20210299198A1, “DIABETES-ALLEVIATING OR ANTIOXIDANT COMPOSITION COMPRISING YEAST EXTRACT AND METHOD FOR PREPARING YEAST EXTRACT” (COENBIO CO., LTD., priority 2018, published 2021).

Where two headings read alike, the source gives them in different places.

The format of assay [1] is biochemical. As for the experimental part: First, 50 μL of potassium ferricyanide and 20 μL of each sample were added to 50 μL of a 0.2 M phosphate buffer solution (pH 6.6) and the mixture was allowed to react at 50° C. for 20 min. After completion of the reaction, 50 μL of a 10% TCA solution was added, followed by centrifugation at 3000×g for 20 min. 100 μL of the supernatant, 200 μL of triple-distilled water, and 20 μL of 0.1% ferric chloride were added, and the absorbance was measured at 700 nm. Trolox and BHA were used as positive controls.

The nature of assay [2]: Radical cation de-colorization assay using ABTS. Format: biochemical. As to the method:
7 mM ABTS was mixed with 2.45 mM potassium persulfate and incubated at room temperature for 16 h to create ABTS cations (ABTS^+). […] The results are shown in Tables 5 and 6 (see FIGS. 4 and 8).

Assay [3] is described as follows: Free radical scavenging assay using DPPH. The format is biochemical. As for the experimental part: An antioxidant scavenges DPPH radicals, losing its original color and being made transparent. The test sample was mixed with 2,2-diphenyl-1-picrylhydrazyl (DPPH, 100 μM) in a ratio of 1:20 and the mixture was stored at 37° C. for 30 min. After completion of the reaction, the absorbance was measured at 517 nm using a spectrophotometer. A lower absorbance indicates a higher antioxidant activity. […] The results are shown in Tables 3 and 4 (see FIGS. 3 and 7).

Regarding `O=C1O[C@H]([C@@H](O)CO)C(O)=C1O` [Ascorbic acid, ascorbic acid], the “Reducing power activities (absorbance at 700 nm)” value in assay [1] (yeast extract 2, 15.625 μg/mL) is 0.058 ± 0.001; in assay [1] (yeast extract 2, 62.5 μg/mL), 0.267 ± 0.002; in assay [1] (yeast extract 2, 250 μg/mL), 0.940 ± 0.005; in assay [1] (yeast extract 2, 1000 μg/mL), 1.146 ± 0.008; in assay [1] (yeast extracts 1, 15.625 μg/mL) it was 0.058 ± 0.001; in assay [1] (yeast extracts 1, 62.5 μg/mL) it was 0.267 ± 0.002. Also, the “Reducing power activities (absorbance at 700 nm)” value was 0.940 ± 0.005 in assay [1] (yeast extracts 1, 250 μg/mL) and 1.146 ± 0.008 in assay [1] (yeast extracts 1, 1000 μg/mL). The “ABTS scavenging activities (IC50) AVERAGE” value in assay [2] (yeast extracts 1) and in assay [2] (yeast extracts 2) was 260 µg/mL in each case. In addition, the “DPPH scavenging activities (IC50) AVERAGE” value in assay [3] (yeast extracts 1) and in assay [3] (yeast extracts 2) was 10 µg/mL in each case.
